# Reference: PubChem BioAssay (NCI)
#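 How tested: cells in 96-well plates exposed to compound for 48 hours at five concentrations. TGI marks complete inhibition of growth.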 Where a SMILES comes first, the peptide text is derived from it. The star is where a group is joined. OBn = c1ccc(CO*)cc1
# What was measured:
# Assay in all cases: NCI-60 cell line screen, 48 h
# KM12 colon = test system: KM12 colon
# SF-295 CNS = test system: SF-295 CNS
# SK-OV-3 ovarian = test system: SK-OV-3 ovarian
# SR leukemia = test system: SR leukemia
# SF-268 CNS = test system: SF-268 CNS
# IGROV1 ovarian = test system: IGROV1 ovarian
# CCRF-CEM leukemia = test system: CCRF-CEM leukemia
# SK-MEL-5 melanoma = test system: SK-MEL-5 melanoma
# MALME-3M melanoma = test system: MALME-3M melanoma
# NCI-H460 lung = test system: NCI-H460 lung
# A498 renal = test system: A498 renal
SMILES,TGI (KM12 colon) [µM],TGI (SF-295 CNS) [µM],TGI (SK-OV-3 ovarian) [µM],TGI (SR leukemia) [µM],TGI (SF-268 CNS) [µM],TGI (IGROV1 ovarian) [µM],TGI (CCRF-CEM leukemia) [µM],TGI (SK-MEL-5 melanoma) [µM],TGI (MALME-3M melanoma) [µM],TGI (NCI-H460 lung) [µM],TGI (A498 renal) [µM]
NC(CCC(=O)OCc1ccccc1)C(=O)NC(CCC(=O)OCc1ccccc1)C(=O)O (stereo unspecified) (H-Glu(OBn)-Glu(OBn)-OH; configuration not given here),> 100,> 100,> 100,> 100,> 100,> 100,> 100,> 100,> 100,> 100,–
CN1CCN(C(=S)N(C)C(=O)c2cccs2)CC1,> 100,> 100,–,> 100,–,> 100,> 100,> 100,> 100,> 100,–
COc1ccc(C(=O)N2CCN(c3ccc4[nH]c(=O)oc4c3)CC2)cc1,> 100,> 100,> 100,> 100,> 100,> 100,> 100,> 100,> 100,> 100,–
C(/C=N/NC1=NCCCN1)=N\NC1=NCCCN1,> 100,–,> 100,> 100,> 100,> 100,> 100,> 100,> 100,> 100,–
CSC(=N)N1N=C2c3ccccc3CC[C@@H]2[C@@H]1c1ccccc1,27.9,27.9,41.6,30.9,49.6,34.8,65,–,25.9,27.2,35.2
COC(=O)/C=C(\S/C(=C(/c1ccc(OC)cc1)n1cc(C(=O)OC)c(C(=O)OC)n1)c1ccc(OC)cc1)C(=O)OC,> 100,> 100,> 100,–,78.8,22.5,15.4,> 100,37.1,> 100,> 100
O=C(NN1C(=O)c2ccccc2C1=O)c1ccccc1Nc1ccccc1C(=O)NN1C(=O)c2ccccc2C1=O,> 100,> 100,–,> 100,> 100,> 100,> 100,> 100,> 100,> 100,–
CC(C)N(c1cc2c(cc1F)c(=O)c(C(=O)O)cn2-c1ccc(N2CCN(C)CC2)cn1)C(C)C,> 100,> 100,> 100,> 100,> 100,> 100,> 100,–,> 100,> 100,> 100
COC(=O)c1c(C(=O)OC)c(C(c2ccccc2)c2ccccc2)n(-c2ccccc2)c1Cl,> 10,> 10,–,> 10,> 10,> 10,> 10,> 10,> 10,> 10,> 10
COc1c(O)cc2c(c1O)C1O[C@H](CO)C(O)[C@H](O)[C@H]1OC2=O (stereo partly specified),> 100,> 100,> 100,> 100,> 100,> 100,> 100,> 100,> 100,> 100,–
O=C1c2ccccc2C(=O)c2c(O)c(O)cc(O)c21,> 100,> 100,82.7,–,> 100,> 100,> 100,> 100,> 100,> 100,> 100
CCO/C(O)=C(/C(=N)N1CCCC1)C(=O)Nc1ccc(Cl)cc1,> 100,> 100,> 100,–,> 100,> 100,> 100,–,> 100,> 100,> 100
CC(CCC(=O)O)[C@H]1CCC2[C@H]3C(CC(=O)[C@@]21C)[C@@]1(C)CCC(O)C[C@H]1C[C@@H]3O (stereo partly specified),> 100,–,–,> 100,> 100,> 100,> 100,–,> 100,> 100,> 100
COc1ccccc1CNCc1nc2ccccc2[nH]1,> 100,> 100,–,> 100,> 100,> 100,> 100,> 100,–,> 100,> 100
O=C(Nc1ccccc1)C(=O)C(C(=O)c1ccccc1)C(c1ccccc1)c1ccccc1 (stereo unspecified),–,> 10,> 10,> 10,> 10,> 10,> 10,> 10,> 10,–,–
O=C(/C=C\c1ccccc1-c1ccccc1)c1ccccc1,> 100,> 100,> 100,> 100,> 100,> 100,> 100,> 100,–,> 100,> 100
N#CC(C#N)=C1CCCCc2ccc([N+](=O)[O-])cc21,> 100,> 100,> 100,–,> 100,> 100,> 100,> 100,> 100,> 100,> 100
O=C(/C=C/c1cccs1)c1ccc(C(=O)/C=C/c2cccs2)cc1,> 100,> 100,> 100,> 100,> 100,> 100,–,–,> 100,> 100,> 100
Cc1ccc(S(=O)(=O)n2cnc(CC(NC(=O)C3CCC(=O)N3C(=O)OCc3ccccc3)C(=O)N3CCCC3C(=O)NN)c2)cc1 (stereo unspecified),> 100,–,–,> 100,–,> 100,–,> 100,> 100,> 100,> 100
Cc1cc2nc3c(C#N)c(-c4ccccc4)cc(Nc4ccc(F)cc4)n3c2cc1C,> 100,76.2,69.9,–,27.9,–,–,> 100,70,–,93.5
O=C(O)CCSc1nnc(COc2ccc(Cl)cc2)n1-c1ccccc1,> 100,> 100,> 100,–,> 100,> 100,> 100,–,> 100,> 100,> 100
Cc1ccnc2nc3[nH]c4ccccc4c3cc12,> 100,> 100,–,> 100,> 100,> 100,> 100,> 100,–,> 100,> 100
